Tests used:
Assay in all cases: Test C
Type in all cases: in vivo
Set-up in all cases: key: 0 was no effect; 100 was complete control
Conditions in all cases: PREEMERGENCE
corn (Zea mays) = test system: corn (Zea mays)
[1] = test system: large crabgrass (Digitaria sanguinalis)
[2] = test system: arrowleaf sida (Sida rhombifolia)
[3] = test system: purple nutsedge (Cyperus rotundus)
[4] = test system: hairy beggarticks (Bidens pilosa)
[5] = test system: ivyleaf morningglory (Ipomoea hederacea)
soybean (Glycine max) = test system: soybean (Glycine max)
[6] = test system: cocklebur (Xanthium strumarium)

Cc1cnc(-c2ccc(C(F)(F)F)cc2)nc1C(Cl)c1cccc(C(F)(F)F)c1 (racemic) [Compound 21]
Plant response rating, Corn (corn (Zea mays); Rate 35 g/ha): 0
Plant response rating, Corn (corn (Zea mays); Rate 70 g/ha): 0
Plant response rating, Corn (corn (Zea mays); Rate 140 g/ha): 0
Plant response rating, Large crabgrass ([1]; Rate 35 g/ha): 80
Plant response rating, Large crabgrass ([1]; Rate 70 g/ha): 100
Plant response rating, Large crabgrass ([1]; Rate 140 g/ha): 100
Plant response rating, Arrowleaf sida ([2]; Rate 35 g/ha): 70
Plant response rating, Arrowleaf sida ([2]; Rate 70 g/ha): 85
Plant response rating, Arrowleaf sida ([2]; Rate 140 g/ha): 90
Plant response rating, Purple nutsedge ([3]; Rate 35 g/ha): 0
Plant response rating, Purple nutsedge ([3]; Rate 70 g/ha): 0
Plant response rating, Purple nutsedge ([3]; Rate 140 g/ha): 0
Plant response rating, H. beggarticks ([4]; Rate 35 g/ha): 0
Plant response rating, H. beggarticks ([4]; Rate 70 g/ha): 0
Plant response rating, H. beggarticks ([4]; Rate 140 g/ha): 40
Plant response rating, I. morningglory ([5]; Rate 35 g/ha): 0
Plant response rating, I. morningglory ([5]; Rate 70 g/ha): 0
Plant response rating, I. morningglory ([5]; Rate 140 g/ha): 0
Plant response rating, Soybean (soybean (Glycine max); Rate 35 g/ha): 0
Plant response rating, Soybean (soybean (Glycine max); Rate 70 g/ha): 0
Plant response rating, Soybean (soybean (Glycine max); Rate 140 g/ha): 5
Plant response rating, Cocklebur ([6]; Rate 35 g/ha): 0
Plant response rating, Cocklebur ([6]; Rate 70 g/ha): 0
Plant response rating, Cocklebur ([6]; Rate 140 g/ha): 0

Cc1cnc(-n2cnc(C(F)(F)F)n2)nc1Cc1cccc(C(F)(F)F)c1 [Compound 43]
Plant response rating, Corn (corn (Zea mays); Rate 35 g/ha): 0
Plant response rating, Corn (corn (Zea mays); Rate 70 g/ha): 30
Plant response rating, Corn (corn (Zea mays); Rate 140 g/ha): 55
Plant response rating, Large crabgrass ([1]; Rate 35 g/ha): 100
Plant response rating, Large crabgrass ([1]; Rate 70 g/ha): 100
Plant response rating, Large crabgrass ([1]; Rate 140 g/ha): 100
Plant response rating, Arrowleaf sida ([2]; Rate 35 g/ha): 100
Plant response rating, Arrowleaf sida ([2]; Rate 70 g/ha): 100
Plant response rating, Arrowleaf sida ([2]; Rate 140 g/ha): 100
Plant response rating, Purple nutsedge ([3]; Rate 35 g/ha): 0
Plant response rating, Purple nutsedge ([3]; Rate 70 g/ha): 0
Plant response rating, Purple nutsedge ([3]; Rate 140 g/ha): 0
Plant response rating, H. beggarticks ([4]; Rate 35 g/ha): 0
Plant response rating, H. beggarticks ([4]; Rate 70 g/ha): 5
Plant response rating, H. beggarticks ([4]; Rate 140 g/ha): 100
Plant response rating, I. morningglory ([5]; Rate 35 g/ha): 20
Plant response rating, I. morningglory ([5]; Rate 70 g/ha): 100
Plant response rating, I. morningglory ([5]; Rate 140 g/ha): 100
Plant response rating, Soybean (soybean (Glycine max); Rate 35 g/ha): 0
Plant response rating, Soybean (soybean (Glycine max); Rate 70 g/ha): 5
Plant response rating, Soybean (soybean (Glycine max); Rate 140 g/ha): 55
Plant response rating, Cocklebur ([6]; Rate 35 g/ha): 0

Cc1cnc(-n2ccc(C(F)(F)F)n2)nc1C(=O)c1cccc(OC(F)(F)F)c1 [Compound 66]
Plant response rating, Corn (corn (Zea mays); Rate 35 g/ha): 0
Plant response rating, Corn (corn (Zea mays); Rate 70 g/ha): 0
Plant response rating, Corn (corn (Zea mays); Rate 140 g/ha): 0
Plant response rating, Large crabgrass ([1]; Rate 35 g/ha): 80
Plant response rating, Large crabgrass ([1]; Rate 70 g/ha): 100
Plant response rating, Large crabgrass ([1]; Rate 140 g/ha): 100
Plant response rating, Arrowleaf sida ([2]; Rate 35 g/ha): 5
Plant response rating, Arrowleaf sida ([2]; Rate 70 g/ha): 5
Plant response rating, Arrowleaf sida ([2]; Rate 140 g/ha): 100
Plant response rating, Purple nutsedge ([3]; Rate 35 g/ha): 0
Plant response rating, Purple nutsedge ([3]; Rate 70 g/ha): 0
Plant response rating, Purple nutsedge ([3]; Rate 140 g/ha): 0
Plant response rating, H. beggarticks ([4]; Rate 35 g/ha): 0
Plant response rating, H. beggarticks ([4]; Rate 70 g/ha): 0
Plant response rating, H. beggarticks ([4]; Rate 140 g/ha): 0
Plant response rating, I. morningglory ([5]; Rate 35 g/ha): 5
Plant response rating, I. morningglory ([5]; Rate 70 g/ha): 10
Plant response rating, I. morningglory ([5]; Rate 140 g/ha): 10
Plant response rating, Soybean (soybean (Glycine max); Rate 35 g/ha): 0
Plant response rating, Soybean (soybean (Glycine max); Rate 70 g/ha): 0
Plant response rating, Soybean (soybean (Glycine max); Rate 140 g/ha): 0
Plant response rating, Cocklebur ([6]; Rate 35 g/ha): 0
Plant response rating, Cocklebur ([6]; Rate 70 g/ha): 0
Plant response rating, Cocklebur ([6]; Rate 140 g/ha): 0

Source: patent US6525001B1, “Substituted pyrimidine and pyridine herbicides” (Mid-American Commercialization Corporation, priority 1997, dated 2003)
